Data: patent publication US20090030038A1, “Novel 8-Sulfonylamino-3 Aminosubstituted Chroman or Tetrahydronaphtalene Derivatives Modulating the 5Ht6 Receptor” (ASTRAZENECA AB, priority 2005, published 2009)

Molecular target: T1, rat striatal 5HT6 receptors (Rattus norvegicus, UniProt P31388)
T1 construct: Striatal tissue from adult rats (Sprague-Dawley, 320-370 g, B & K Sweden) were dissected out, weighed and homogenized; from tissue; host or cells: rat striatum (Sprague-Dawley) membranes
Experiment: [125I]SB258585 binding to rat striatal 5HT6 receptors
Conditions: competition with [125I]SB258585, rat striatal membranes
Protocol: Method for [125I]SB258585 binding to rat striatal 5HT6 receptors
[125I]SB258585 (1) with specific activity 2000 Ci/mmol was purchased from Amersham Biosciences Europe GmbH, Freiburg, Germany. Other chemicals were purchased from commercial sources and were of analytical grade.
Striatal tissue from adult rats (Sprague-Dawley, 320-370 g, B & K Sweden) were dissected out, weighed and homogenized in buffer containing 50 mM Tris-HCl, 4 mM MgCl2, 1 mM EDTA, 10 μM pargyline and protease inhibitor (Complete, Roche Diagnostics) pH 7.4 using an Ultra-Turrax T8 (IKA Labortechnik, Germany). The tissue homogenate was centrifuged at 48 000×g for 10 min and the pellet was resuspended and recentrifuged as above. The final membranes were diluted in buffer to a concentration of 60 mg original wet weight (w.w.) per ml and stored in aliquots at −70° C.
Saturation binding studies were carried out in duplicate with 1-3 mg w.w. per tube in 0.5 ml buffer (50 mM Tris, 4 mM MgCl2, 100 mM NaCl, 1 mM EDTA, 5 mM ascorbate and 10 μM pargyline at pH 7.4), 0.2 nM [125I]SB258585 and unlabelled SB258585 to give a final concentration range of 0.23-20 nM (12 conc.). Non-specific binding was determined in the presence of 10 μM methiothepin. In the competition experiments 0.8-2 mg w.w. per tube and a radioligand concentration of 0.5-1 nM were used with 7 concentrations of the competing drug pre-dissolved in DMSO and diluted in buffer. The assays were incubated for 1-3 hours at room temperature, and terminated by rapid filtration through Whatman GF/B filters pretreated with 0.3% polyethyleneimine using a Brandel cell harvester. The radioactivity was determined in a Packard Tri-Carb 2900TR liquid scintillation counter. Data were analyzed by non-linear regression analyses using PRISM 4.00 (GraphPad Software Inc., San Diego, Calif.).
Hirst, W. D., Minton, J. A. L., Bromidge, S. M., Moss, S. F., Latter, A., Riley, G., Routledge, C., Middlemiss, D. N. & Price, G. W. (2000). Characterization of [125I]-SB-258585 binding to human recombinant and native 5HT6 receptors in rat, pig and human brain tissue. Br. J. Pharmacol., 130, 1597-1605.

T1 sequence (P31388 whole entry): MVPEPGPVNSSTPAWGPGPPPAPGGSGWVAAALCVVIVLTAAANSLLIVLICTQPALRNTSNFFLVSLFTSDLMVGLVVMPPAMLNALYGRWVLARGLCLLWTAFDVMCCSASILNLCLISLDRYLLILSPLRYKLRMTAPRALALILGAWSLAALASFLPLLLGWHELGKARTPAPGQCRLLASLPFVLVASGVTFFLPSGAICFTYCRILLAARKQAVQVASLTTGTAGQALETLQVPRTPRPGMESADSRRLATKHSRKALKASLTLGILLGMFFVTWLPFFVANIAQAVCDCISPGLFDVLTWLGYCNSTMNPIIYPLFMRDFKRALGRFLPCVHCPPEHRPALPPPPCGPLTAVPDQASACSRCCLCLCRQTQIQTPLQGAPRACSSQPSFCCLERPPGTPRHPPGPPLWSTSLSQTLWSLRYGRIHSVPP

Ki [µM]	SMILES
0.29 ± 0.19	COc1ccc(NS(=O)(=O)c2cc(Cl)cc(Cl)c2)c2c1C[C@@H](N1CCCC1)CC2 [Example 313, 3,5-Dichloro-N-[(6S)-4-methoxy-6-pyrrolidin-1-yl-5,6,7,8-tetrahydronaphthalen-1-yl]benzenesulfonamide]
0.019 ± 0.0008	COc1ccc(NS(=O)(=O)c2sc3ccc(F)cc3c2C)c2c1C[C@@H](N(C)C)CC2 [Example 181, N-[(6S)-6-(dimethylamino)-4-methoxy-5,6,7,8-tetrahydronaphthalen-1-yl]-5-fluoro-3-methyl-1-benzothiophene-2-sulfonamide]
0.002 ± 0.0006	COc1ccc(NS(=O)(=O)c2ccccc2-c2ccccc2)c2c1C[C@@H](N(C)C)CO2 [Example 122, N-[(3R)-3-(dimethylamino)-5-methoxy-3,4-dihydro-2H-chromen-8-yl]-1,1′-biphenyl-2-sulfonamide]
0.013 ± 0.0059	COc1ccc(NS(=O)(=O)c2ccccc2-c2ccccc2)c2c1C[C@@H](N(C)C)CC2 [Example 176, N-[(6S)-6-(dimethylamino)-4-methoxy-5,6,7,8-tetrahydronaphthalen-1-yl]-1,1′-biphenyl-2-sulfonamide]
0.042 ± 0.027	COc1ccc(NS(=O)(=O)c2ccc3ccccc3c2)c2c1C[C@@H](N(C)C)CO2 [Example 24, N-[(3R)-3-(dimethylamino)-5-methoxy-3,4-dihydro-2H-chromen-8-yl]naphthalene-2-sulfonamide]
0.049 ± 0.016	COc1ccc(NS(=O)(=O)c2ccc(-c3ccnc(SC)n3)s2)c2c1C[C@@H](N(C)C)CO2 [Example 135, N-[(3R)-3-(dimethylamino)-5-methoxy-3,4-dihydro-2H-chromen-8-yl]-5-[2-(methylthio)pyrimidin-4-yl]thiophene-2-sulfonamide]
0.0075 ± 0.0036	COc1ccc(NS(=O)(=O)c2cccc(Br)c2)c2c1C[C@@H](N(C)C)CO2 [Example 3, 3-Bromo-N-[(3R)-3-(dimethylamino)-5-methoxy-3,4-dihydro-2H-chromen-8-yl]benzenesulfonamide]

SMILES	Ki [µM]
CN(C)[C@H]1CCc2c(cccc2NS(=O)(=O)c2cccc(Br)c2)C1 [Example 170, (2S)-5-{[(3-Bromophenyl)sulfonyl]amino}-N,N-dimethyl-1,2,3,4-tetrahydronaphthalen-2-ammonium Acetate]	0.074
